Patent publication US12570988B2, “Aptamers that bind thiamine analogs and derivatives” (MeiraGTx Gene Regulation Limited, priority 2020, dated 2026)

Assays:
[1] = tested on: riboswitch TPPz (A. tabrizica thiC TPP aptamer); assay: Luciferase reporter with TPPz riboswitch in HEK 293 cells; format: cell-based, human; conditions: FIG. 1
Source text: (§1) Riboswitch constructs: Aptamers were synthesized by Integrated DNA Technologies, Inc. and Golden Gate cloning strategy (New England Biolabs, NEB) was used to clone the synthesized aptamer sequences into intron-exon-intron cassette to replace the guanine aptamer in the G17 riboswitch cassette (see SEQ ID NO: 15 recited in WO 2016/126747, which is incorporated herein in its entirety) with a TPP aptamer from the Alishewanella tabrizica thiC gene (Microbiol Res. 2017 January; 195:71-80) or a TPP aptamer from the Escherichia coli thiM gene (Structure. 2006 September; 14(9):1459-68), generating riboswitch TPPz and TPPm, respectively.
(§2) Transfection: 3.5×10^4 human embryonic kidney (HEK) 293 cells were plated in a 96-well flat bottom plate the day before transfection. Plasmid DNA (500 ng) was added to a tube or a 96-well U-bottom plate. Separately, TransIT-293 reagent (Mirus; 1.4 μL) was added to 50 μL Optimem I media (Life Technologies) and allowed to sit for 5 minutes at room temperature (RT). Then, 50 μL of this diluted transfection reagent was added to the DNA, mixed, and incubated at RT for 20 min. Finally, 7 μL of this solution was added to a well of cells in the 96-well plate. Four hours after transfection, medium containing transfection solution was replaced by medium containing either TPP, fursultiamine, prosultiamine, bisbentiamine, beclotiamine hydrochloride, or sulbutiamine as aptamer inducers.
(§3) Firefly luciferase assay of cultured cells: Twenty-four hours after media change, plates were removed from the incubator, and equilibrated to RT for several minutes on a lab bench, then aspirated. Glo-lysis buffer (Promega, 100 μL, RT) was added, and the plates allowed to remain at RT for at least 5 minutes. Then, the well contents were mixed by 50 μL trituration, and 20 μL of each sample was mixed with 20 μL of bright-glo reagent (Promega) that had been diluted to 10% in glo-lysis buffer. 96 wells were spaced on an opaque white 384-well plate. Following a 5 min incubation at RT, luminescence was measured using a Tecan machine with 500 ms read time. The luciferase activity was expressed as mean arbitrary light units (ALU)±S.D., and fold induction was calculated as the quotient of the luciferase activity obtained from cells with TPP or analog treatment divided by the luciferase activity obtained from cells without TPP or analog treatment.

[2] = tested on: riboswitch TPPm (E. coli thiM TPP aptamer); assay: Luciferase reporter with TPPm riboswitch in HEK 293 cells; format: cell-based, human; conditions: FIG. 1
Source text: as §1, §2, §3

riboswitch 15D10 [3] = assay: Luci-15D10 luciferase reporter in ARPE-19 cells; format: cell-based, human; conditions: FIG. 9E
riboswitch 15D10 [4] = assay: Luciferase reporter with 15D10 riboswitch (Luci-15D10) in AML12 cells; format: cell-based, mouse; conditions: for relative potency in inducing luciferase expression: AML 12 cells, compared with fursultiamine or within groups; for luciferase regulation in response to ligand, riboswitch 15D10 / fold induction at 50 µM: AML12 cells; for luciferase regulation in response to ligand, riboswitch 15D10: FIG. 6B; for fold induction at 50 µM: Mus musculus, AML12, 24 h, Table 2, read-out: Fold increase in riboswitch 15D10-regulated luciferase expression, AML
riboswitch 15D10 [5] = assay: Luciferase reporter with 15D10 riboswitch (Luci-15D10) in HEK 293 cells; format: cell-based, human; conditions: HEK 293 cells; for effect on luciferase expression from Luci-15D10: FIG. 9A, 9C; for fold induction at 50 µM: Homo sapiens, HEK293, 24 h, Table 2, read-out: Fold increase in riboswitch 15D10-regulated luciferase expression, HEK
In short: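 Cells transfected with riboswitch-luciferase plasmid; 4 h later medium replaced with TPP or thiamine analogs (fursultiamine, prosultiamine, bisbentiamine, beclotiamine, sulbutiamine) as inducers.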

[6] = tested on: riboswitch comprising aptamer 15A5; assay: Luciferase reporter with 15A5 riboswitch in AML12 cells; format: cell-based, mouse; conditions: FIG. 6B
riboswitch 6B4 = assay: In vivo bioluminescence imaging, mice given AAV luci-6B4; design: species or system Balb/c mice
Source text: (§4) AAV2.8 viral particle production: The AAV2.8 particles used for the transfection of mice comprised a viral genome derived from AAV2 and a capsid derived from AAV8. The luciferase gene containing an intron-exon-intron cassette with (1) a non-regulatable riboswitch without aptamer (“luci-Con1”, SEQ ID NO:90), (2) a riboswitch cassette comprising aptamer 3H4 (“luci-3H4”, SEQ ID NO:91), or (3) a riboswitch cassette comprising aptamer 6B4 (“luci-6B4”, SEQ ID NO:92), respectively, was cloned into an AAV2 plasmid vector. Expression of the luciferase gene was controlled by a CASI promoter, which includes CMV and ubiquitin C enhancer elements and the chicken β-actin promoter. The viral vector was packaged into AAV8 capsid and produced following manufacture's protocol (Vigene Biosciences).
(§5) Animal study: Male Balb/c mice received a single tail vein injection of 1.0×10^11 or 2.5×10^11 genome copies of the receptive AAV2.8 viral particle. Twenty-eight days after AAV vector delivery, mice were treated intraperitoneally (IP.) with 50 mg/kg prosultiamine. Luciferase activity was measured the day prior to drug dosing, as well as 6 h, 24 h, 48 h and 72 h after drug dosing. After the first administration of prosultiamine, the mice were subjected to three additional rounds of dosing and imaging cycles as follows: Day 36 (after AAV administration):100 mg/kg; day 43: 200 mg/kg; and day 51: 400 mg/kg.
(§6) Noninvasive live animal bioluminescence imaging: Before imaging, mice were anesthetized with 2% isoflurane, and injected with 150 mg/kg body weight of luciferin. At the indicated time point post drug dosing, images were taken within 2 to 5 minutes after luciferin injection using a Bruker Xtreme system. Luciferase activity was expressed as mean photon/s±S.D. (n=5). The fold induction of luciferase gene expression was calculated as the quotient of photon/s obtained from mice treated with prosultiamine divided by the value obtained from mice the day before prosultiamine treatment.

riboswitch 3H4 = assay: In vivo bioluminescence imaging, mice given AAV luci-3H4; design: species or system Balb/c mice
Source text: as §4, §5, §6

[7] = tested on: luciferase expression in HEK 293 cells; assay: Screen of aptamer libraries A1-A3 for gene regulation activity with fursultiamine; format: cell-based, human; conditions: 50 μM fursultiamine, FIG. 4A
Experimental: Three aptamer libraries A1, A2 and A3, were generated by randomizing nucleotides at 6 positions in, or adjacent to, regions J4-5, J2-4 and J3-2, respectively (see FIG. 3). Single bacterial colonies were picked and plasmids containing riboswitch constructs were screened in HEK 293 cells for improved gene regulation activity in response to 50 μM fursultiamine as compared to riboswitch 14G4. […] These riboswitches comprising re-engineered aptamer sequences also lead to significant enhancements of target gene expression in other cells types, including alpha mouse liver 12 (AML12), C2C12 (murine myoblast cell line), and adult retinal pigment epithelial cell line-19 (ARPE-19) (see FIG. 4B).

[8] = 50 mg/kg IP single dose, six hours after dosing
[9] = 50 mg/kg and 100 mg/kg IP doses
[10] = 200 mg/kg and 400 mg/kg IP doses

Molecule: C/C(=C(\CCOC(=O)c1ccccc1)SS/C(CCOC(=O)c1ccccc1)=C(/C)N(C=O)Cc1cnc(C)nc1N)N(C=O)Cc1cnc(C)nc1N [bisbentiamine]
- effect on luciferase expression, riboswitch TPPz [1]: weak or no effects on luciferase expression
- effect on luciferase expression, riboswitch TPPm [2]: weak or no effects on luciferase expression

Molecule: C/C(=C(\CCO)SCOC(=O)C(C)(C)C)N(C=O)Cc1cnc(C)nc1N [Compound M10, (Z)-((2-(N-((4-Amino-2-methylpyrimidin-5-yl)methyl)formamido)-5-hydroxypent-2-en-3-yl)thio)methyl pivalate]
- activity in increasing riboswitch 15D10-regulated luciferase expression (riboswitch 15D10 [3]): equivalent potency to fursultaimine
- relative potency in inducing luciferase expression (riboswitch 15D10 [4]): more potent than fursultiamine
- effect on luciferase expression from Luci-15D10 (riboswitch 15D10 [5]): increased

Molecule: CC(=C(CCOC(=O)C(C)C)SSC(CCOC(=O)C(C)C)=C(C)N(C=O)Cc1cnc(C)nc1N)N(C=O)Cc1cnc(C)nc1N (stereo in doubt) [sulbutiamine]
- effect on luciferase expression, riboswitch TPPz [1]: weak or no effects on luciferase expression
- effect on luciferase expression, riboswitch TPPm [2]: weak or no effects on luciferase expression

Molecule: Cc1ncc(C[n+]2csc(CCO[P@](=O)(O)OP(=O)(O)O)c2C)c(N)n1 [TPP, thiamine pyrophosphate]
- effect on luciferase expression, riboswitch TPPz [1]: regulate luciferase expression
- luciferase regulation in response to ligand, riboswitch 15A5 [6]: respond very poorly
- luciferase regulation in response to ligand, riboswitch 15D10 (riboswitch 15D10 [4]): respond very poorly
- effect on luciferase expression, riboswitch TPPm [2]: regulate luciferase expression

Molecule: C/C(=C(\CCO)SCOC(=O)c1ccccc1)N(C=O)Cc1cnc(C)nc1N [Compound M21, (Z)-((2-(N-((4-Amino-2-methylpyrimidin-5-yl)methyl)formamido)-5-hydroxypent-2-en-3-yl)thio)methyl benzoate]
- activity in increasing riboswitch 15D10-regulated luciferase expression (riboswitch 15D10 [3]): equivalent potency to fursultaimine
- relative potency in inducing luciferase expression (riboswitch 15D10 [4]): more potent than fursultiamine
- fold induction at 50 µM (riboswitch 15D10 [4]): 229
- effect on luciferase expression from Luci-15D10 (riboswitch 15D10 [5]): increased
- fold induction at 50 µM (riboswitch 15D10 [5]): 618

Molecule: Cc1ncc(C[n+]2csc(CCCl)c2C)c(N)n1.Cl.[Cl-] [beclotiamine hydrochloride]
- effect on luciferase expression, riboswitch TPPz [1]: weak or no effects on luciferase expression
- effect on luciferase expression, riboswitch TPPm [2]: weak or no effects on luciferase expression

Molecule: CCCSS/C(CCO)=C(/C)N(C=O)Cc1cnc(C)nc1N [prosultiamine]
- effect on luciferase expression, riboswitch TPPz [1]: induce luciferase expression
- luciferase regulation in response to ligand, riboswitch 15A5 [6]: robustly regulate luciferase expression
- luciferase regulation in response to ligand, riboswitch 15D10 (riboswitch 15D10 [4]): robustly regulate luciferase expression
- luciferase activity in mice, riboswitch 6B4 (riboswitch 6B4; [8]): significantly increased
- time at which induced luciferase activity attenuated to pre-treatment level (riboswitch 6B4; [9]): 24 h
- time induced luciferase activity remained (riboswitch 6B4; [10]): ≥ 48 h
- effect on luciferase expression, riboswitch TPPm [2]: induce luciferase expression
- luciferase activity in mice, riboswitch 3H4 (riboswitch 3H4; [8]): significantly increased
- time at which induced luciferase activity attenuated to pre-treatment level (riboswitch 3H4; [9]): 24 h
- time induced luciferase activity remained (riboswitch 3H4; [10]): ≥ 48 h

Molecule: C/C(=C(\CCO)SCOC(=O)C12CC3CC(CC(C3)C1)C2)N(C=O)Cc1cnc(C)nc1N [Compound M19, (((Z)-2-(N-((4-Amino-2-methylpyrimidin-5-yl)methyl)formamido)-5-hydroxypent-2-en-3-yl)thio)methyl (3r,5r,7r)-adamantane-1-carboxylate]
- activity in increasing riboswitch 15D10-regulated luciferase expression (riboswitch 15D10 [3]): equivalent potency to fursultaimine
- relative potency in inducing luciferase expression (riboswitch 15D10 [4]): more potent than fursultiamine
- fold induction at 50 µM (riboswitch 15D10 [4]): 330
- fold increase in luciferase expression (riboswitch 15D10 [5]; 12.5 μM): 168.7 fold
- effect on luciferase expression from Luci-15D10 (riboswitch 15D10 [5]): increased
- relative potency in inducing luciferase expression (riboswitch 15D10 [5]; compared with fursultiamine or within Formula V/VI groups): more potent
- fold induction at 50 µM (riboswitch 15D10 [5]): 676

B1: 1D10: re-engineered aptamer, encoding sequence SEQ ID NO:8 (nucleic acid)
DNA: ACAGGGGTCCGGCCTTTTCATTTGGCGCCGGTGAGATTATACCCTTTGAACCTGTTTACGGATAATGCCGCCGCAGGGAGT
modifications: expressed or natural sequence
- fursultiamine-dependent induction compared to parent construct 14G4 [7]: increase in fursultiamine-dependent induction

B2: 3H4: re-engineered aptamer, encoding sequence SEQ ID NO:9 (nucleic acid)
DNA: ACAGGGGTCCGGCCTTTTCATTTGGCGCCGGTGAGAGCACACCCTTTGAACCTGTTCACGGATAATGCCGCTGCAGGGAGT
modifications: expressed or natural sequence
- fursultiamine-dependent induction compared to parent construct 14G4 [7]: increase in fursultiamine-dependent induction

B3: 6G12: re-engineered aptamer, encoding sequence SEQ ID NO:17 (nucleic acid)
DNA: ACAGGGGTCCGGCCTTTTCATTTGGCGCCGGTGAGAGCACACCCTTTGGACCTGTTTACGGATAATGCCGCCGCAGGGAGT
modifications: expressed or natural sequence
- fursultiamine-dependent induction compared to parent construct 14G4 [7]: increase in fursultiamine-dependent induction

B4: 4H2: re-engineered aptamer, encoding sequence SEQ ID NO:15 (nucleic acid)
DNA: ACAGGGGTCCGGCCTTTTCATTTGGCGCCGGTGAGAGCACACCCTTCGGACCTGTTTACGGATAATGCCGCCGCAGGGAGT
modifications: expressed or natural sequence
- fursultiamine-dependent induction compared to parent construct 14G4 [7]: increase in fursultiamine-dependent induction

B5: 6B4: re-engineered aptamer, encoding sequence SEQ ID NO:14 (nucleic acid)
DNA: ACAGGGGTCCGGCCTTTTCATTTGGCGCCGGTGAGAGCACACCCTTGTGACCTGTTTACGGATAATGCCGCCGCAGGGAGT
modifications: expressed or natural sequence
- fursultiamine-dependent induction compared to parent construct 14G4 [7]: increase in fursultiamine-dependent induction

B6: 6C4: re-engineered aptamer, encoding sequence SEQ ID NO:16 (nucleic acid)
DNA: ACGGGGGTCCGGCCTTTTCATTTGGCGCCGGTGAGAGCACACCCTTCGAACCTGTTTACGGATAATGCCGCCGCAGGGAGT
modifications: expressed or natural sequence
- fursultiamine-dependent induction compared to parent construct 14G4 [7]: increase in fursultiamine-dependent induction
